From patent publication EP4741383A1, “COMPOUND AND USE THEREOF AS ANTI-CANCER DRUG” (Tyligand Bioscience (Shanghai) Limited, priority 2023, dated 2025)
Read-outs that look alike come from different tables or passages of the source.

Assay: Rat PK study (IV 1 mg/kg and PO 5 mg/kg)
Type: in vivo, male SD rats
Settings: for AUC(0-t) / clearance / half-life / Vd / Cmax: male, SD, rat, plasma; for clearance: read-out: IV Cl; for Vd: read-out: IV Vz
Protocol: According to standard methods for rat PK studies in this field, the rat PK tests for the representative compounds of this disclosure and the positive control compound (11a-1) were conducted as follows.
Specifically, six male SD rats (6-8 weeks old, weighing 200 ± 20 g, purchased from Vital River Laboratories) were randomly divided into two groups of three rats each, for intravenous (IV) and oral gavage (PO) administration, respectively.
For the intravenous injection group: the test compound was weighed according to the administration dose (1 mg/kg), dissolved using the solvent listed in the table below to obtain a clear solution of 1 mg/mL, and administered to the rats via tail vein injection at a dose of 1 mg/kg. […]
Blood was collected via jugular vein puncture at various time points: 0.083, 0.25, 0.5, 1, 2, 4, 6, 8, and 24 hours. 0.2 mL of whole blood was collected at each time point, placed in a 1.5 mL anticoagulant tube containing EDTA, and placed on a sample plate containing wet ice until centrifugation; after centrifugation at 8000 rpm for 10 minutes at 4°C, 0.1 mL of plasma sample was collected and stored in an […] cryovial at -20°C until analysis.
Preparation of the stock solution of the test compound: 1 mg of the test compound was accurately weighed, dissolved in 1 mL of DMSO to prepare a 1 mg/mL stock solution S1, and stored in a 4°C refrigerator until use.
Preparation of the internal standard working solution: 0.1 mL of tolbutamide (2 mg/mL) internal standard stock solution was pipetted into 1000 mL of acetonitrile to prepare a 200 ng/mL internal standard working solution, which is used as a protein precipitant in sample pretreatment. The prepared internal standard working solution was stored at 4°C and valid for 12 months.
Preparation of the standard curve and quality control sample working solutions: 50 µL of the 1 mg/mL test compound DMSO stock solution S1 was diluted with 950 µL of 100% methanol solution to obtain a working solution with a concentration of 50000 ng/mL. Then, the 50000 ng/mL working solution was serially diluted with 100% methanol solution to obtain a series of standard curve working solutions with concentrations of 10, 20, 50, 100, 500, 1000, 5000, 10000, 20000, and 50000 ng/mL. 40 µL of the 1 mg/mL test compound DMSO stock solution S1 was diluted with 960 µL of 100% methanol solution to obtain a quality control sample working solution with a concentration of 40000 ng/mL. An appropriate amount of this working solution was diluted appropriately to prepare quality control sample working solutions with concentrations of 8000 and 16000 ng/mL. 60 µL of the 50 ng/mL test compound DMSO standard curve working solution was diluted with 40 µL of 100% methanol solution to obtain a quality control sample working solution with a concentration of 30 ng/mL.
Plasma sample treatment: standard curve and quality control samples for the test compound in plasma were prepared by diluting 5 µL of working solutions of different concentrations of the test compound for the standard curve and quality control samples in 45 µL of blank rat plasma, resulting in final concentrations of 1, 2, 5, 10, 50, 100, 500, 1000, 2000, and 5000 ng/mL for the standard curve and final concentrations of 3, 800, 1600, and 4000 ng/mL for the quality control samples.
Plasma sample pretreatment: 50 µL of the plasma sample was transferred to a 96-well plate, added with 500 µL of acetonitrile containing 200 ng/mL tolbutamide as an internal standard for protein precipitation, and centrifuged at 4000 rpm for 20 minutes at 2-8 °C. 300 µL of the supernatant was transferred to a new labeled 96-well plate, mixed thoroughly with 300 µL of 0.1% formic acid in water, and injected 10 µL into LC-MS/MS (API-4000 Qtrap-Shimadzu Controller-CBM20A).
The internal standard method was used for sample analysis. Data acquisition and analysis were performed using Analyst 1.6.3. […]

[1] = 1 mg/kg, IV, dose 1 mpk, read-out: IV AUC 0->t
[2] = 1 mg/kg, IV, dose 1 mpk, read-out: IV T1/2 (converted)
[3] = 5 mg/kg, PO, dose 5 mpk, read-out: PO AUC 0->t
[4] = 5 mg/kg, PO, dose 5 mpk, read-out: PO T1/2 (converted)

| Compound | PO F (PO, dose 5 mpk (IV 1 mpk)) [%] | AUC(0-t) [1] [ng·h/mL] | clearance (1 mg/kg, IV, dose 1 mpk) [mL/min/kg] | half-life [2] [h] | Vd (1 mg/kg, IV, dose 1 mpk) [L/kg] | Cmax (5 mg/kg, PO, dose 5 mpk) [ng/mL] | AUC(0-t) [3] [ng·h/mL] | half-life [4] [h] | PO F (PO, dose 10 mpk (IV 1 mpk)) [%] | Cmax (10 mg/kg, PO, dose 10 mpk) [ng/mL] | AUC(0-t) (10 mg/kg, PO, dose 10 mpk, read-out: PO AUC 0->t) [ng·h/mL] | half-life (10 mg/kg, PO, dose 10 mpk, read-out: PO T1/2 (converted)) [h] |
| --- | --- | --- | --- | --- | --- | --- | --- | --- | --- | --- | --- | --- |
| O=C(Nc1ccc(-c2cc3cc(F)c(-c4nnn[nH]4)cc3n2C2CCC2)cc1)C(=O)Nc1ccc(N2CCC(CO)CC2)cc1 [Example 23] | 52.7 | 2840 | 5.45 | 8.49 | 4.01 | 1140 | 8010 | 3.17 | – | – | – | – |
| CC1(n2c(-c3ccc(NC(=O)C(=O)Nc4ccc(N5CCC6(CCOC6)CC5)cc4)cc3)cc3cc(F)c(-c4nnn[nH]4)cc32)CCC1 [Example 68] | 30.5 | 1380 | 12.6 | 1.63 | 1.57 | 150 | 2100 | 4.31 | – | – | – | – |
| Cn1c(-c2cccc(NC(=O)C(=O)Nc3ccc(-c4ccsc4)cc3)c2)c(I)c2cc(C(=O)O)c(O)cc21 [Example 11a-1, reference compound] | – | 4230 | 4 | 4.06 | 1.42 | – | – | – | 0.07 | 44.2 | 30 | 1.1 |
